What was measured:
Format in all cases: physicochemical
[1] = Acetone content of the dried product by gas chromatography
Protocol: The acetone content or concentration of organic solvent may be determined in any suitable manner, e.g. by gas chromatography.
The acetone content of the dried product was analysed using a Hewlett-Packard Gas Chromatograph, model 5890. As a sample solution was used a solution obtained by dissolving 0.500 g of product in 10.0 ml of water (with the aid of some drops of NaOH 1 N). As a standard (reference) solution was used a solution obtained by dissolving 0.5 g of acetone standard in 50.0 ml of water, from which 1.0 ml was taken and diluted with 50.0 ml water.

[2] = Color C400 measured at 400 nm (Ph. Eur.); conditions: color measured at a wavelength of 400 nm
From the text: In a preferred embodiment, the product according to the invention has a C400≦0.20, wherein C400 is the color measured at a wavelength of 400 nm (Ph.Eur.). Preferably, the product has a C400≦0.15, preferably a C400≦0.10.

[3] = Water content (Karl Fisher) of the dried product; conditions: after drying
Protocol: The wet cake was fluidised with air at ambient temperature during 15 to 30 minutes, after which it was fluidised with warm air (30-40° C.) during 45 to 75 minutes (air flow 1800 m^3/hr), until the water content was 5.2 wt. % (Karl Fisher).
(product temperature 40° C.). The final pressure was 20 mbar. […] The water content was 5.2 wt. % (Karl Fisher).

| Compound | Acetone content ([1]; dried cephalexin product) | Acetone content ([1]; dried product, fluid bed dryer) | C400 (Ph. Eur.) [2] | water content (Karl Fisher) [3] |
| --- | --- | --- | --- | --- |
| CC1=C(C(=O)O)N2C(=O)[C@@H](NC(=O)[C@H](N)c3ccccc3)[C@H]2SC1 [Comparative experiment A, cephalexin] | 500 mg/kg | 500 mg of acetone per kg of cephalexin | 0.025 | 5.2 wt. % |
| CC1=C(C(=O)O)N2C(=O)[C@@H](NC(=O)[C@H](N)c3ccccc3)[C@H]2SC1.O [Example I, cephalexin] | 10 mg/kg | – | 0.026 | 5.2 wt. % |

— patent US20080031955A1, “Product Comprising a Beta-Lactam Antibiotic” (priority 2004, published 2008)
